Experimental data from patent publication US8129547B2, “Anticoagulation of human blood ex vivo” (priority 2006, dated 2012).

Experiments:
Factor XIIa = molecular target: T1, Factor XIIa (Homo sapiens, UniProt P00748); experiment: Determination of Ki values, chromogenic substrate, Dixon evaluation: Factor XIIa; type: biochemical; conditions: 25° C., tris buffer pH 8.0, substrate H-D-HHT-Gly-Arg-pNA
T1 construct: purchased Haemochrom Diagnostica GmbH (Essen, D)
T1 sequence (P00748 373-615 limits assumed): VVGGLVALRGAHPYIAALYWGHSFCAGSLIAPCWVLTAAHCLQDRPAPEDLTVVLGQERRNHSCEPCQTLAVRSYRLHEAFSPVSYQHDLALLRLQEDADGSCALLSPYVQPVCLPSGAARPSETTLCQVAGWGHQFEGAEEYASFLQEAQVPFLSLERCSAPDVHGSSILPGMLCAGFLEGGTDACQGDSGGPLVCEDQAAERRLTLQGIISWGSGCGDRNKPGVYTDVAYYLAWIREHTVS
Source text: (§1) The inhibitors used here are the commercially available exemplary inhibitors Pefabloc tPA/Xa (2,7-bis(4-amidinobenzylidene)-cyclopeptanone-(1), Pentapharm Ltd. Basel, Switzerland), CJ-FXa (benzylsulphonyl-D-arginyl-glycyl-4-amidinobenzylamide, Haemochrom GmbH, Essen, Germany) and CJ-PK (benzylsulphonyl-D-seryl-carbobenzoxylsyl-4-amidinobenzylamide, Haemochrom GmbH, Essen, Germany). Research samples were available of DX-9065a ((+)-(2S)-2-[4-[[3S)-1-acetimidoyl-3-pyrrodinyl]oxy]phenyl]-3-[7-amidino-2-naphthyl]propanic acid, Daiichi Pharmaceutical Company Ltd., Tokyo, Japan), and Otamixaban (2-(R)-(3-carbamimidoylbenyzyl)-3-(R)-[4-(1-oxypyridin-4-yl)benzoylamino]-butyric acid-methylester, Sanofi-Aventis GmbH, Frankfurt, Germany), both of which are undergoing clinical tests. In order to examine the inhibitory action of these exemplarily used inhibitors on the blood coagulation factors plasma-kallikrein, VIIa, Xa, XIa and XIIa, the Ki values of the respective enzyme-inhibitor complexes were determined.
(§2) The enzymes were produced by Haemochrom Diagnostica GmbH (Essen, D) and were dissolved in 0.154 mol/l NaCl. The substrates (Pentapharm AG, Basel, CH) were dissolved in H2O and the inhibitor was dissolved in the above-mentioned tris buffer. The following substrates were used for the individual enzymes:
(§3) 200 μl of inhibitor solution were mixed with 25 μl of substrate for the determination and the reaction was started by the addition of 50 μl of enzyme. After a reaction time of 3-5 mins. 25 μl of acetic acid (50%) were added and the extinction was measured at 405 nm with a microplate reader (iEMS Reader MF 12401, Labsystems, Helsinki, Finland). The evaluation was carried out graphically according to Dixon (Biochem. J., 55, 170, 1953).
(§4) The enzymes were produced by Haemochrom Diagnostica GmbH (Essen, D), and only thrombin was manufactured in our own laboratory according to Walsmann (Pharmazie 23, 401-402, 1968). All the enzymes were dissolved in 0.154 mol/l NaCl. The substrates (Pentapharm AG, Basel, CH) were dissolved in H2O and the inhibitor was dissolved in the above-mentioned tris buffer. The following substrates were used for the individual enzymes:
as §3, with “1401,” for “12401,”

human vein blood = experiment: Storage of human vein blood after anticoagulation with inhibitor (F1+2 immunoassay); conditions: 25° C.
Procedure: In the sense of the invention anticoagulation means that the re-formation of thrombin is inhibited in the sampled blood. According to the invention thrombin re-formation is inhibited when no more than 1 nM of thrombin is re-formed in the sampled blood. As described above, the activation of prothrombin to thrombin represents an essential step in the blood coagulation cascade. In this case the prothrombin fragment 1+2 (F1+2) is released in equivalent quantities. It is therefore possible to quantify the thrombin actually formed by determining the fragment produced, thus enabling the prothrombin fragment F1+2 to be used as an indirect marker of an activation of prothrombin to thrombin. The concentration of the prothrombin fragment F1+2 formed may be determined immunologically, for example, with commercial enzyme immunoassays (for example Enzygnost F1+2 micro, Dade Behring GmbH, Marburg).
According to the invention anticoagulation therefore means that no more than 1 nM of prothrombin fragment F1+2 is newly formed in the blood after its sampling. […] Without suitable treatment of the blood to prevent coagulation there is an increase in the concentration of the prothrombin fragment F1+2 in this example to well over 1.3 nM, within a few minutes, due to the plasmatic coagulation, i.e. the blood coagulates.
In this experiment it was determined how long human vein blood can be stored without the formation of thrombin or activation of thrombocytes.
For this purpose blood (9 parts) sampled from a patient was mixed with inhibitor solution (0.05 mM, 0.5 mM or 5 mM in physiological NaCl solution; 1 part). Some of the blood was stored at 25° C., the remainder in the refrigerator at 4° C. The quantity of thrombin formed was determined immunologically during storage based on the formation of the prothrombin fragment F1+2 (Enzygnost F1+2 micro, Dade Behring GmbH, Marburg). […] In this case it is irrelevant whether the blood samples were kept at room temperature (approx. 25° C.) or at 4° C.
For this purpose blood (9 parts) sampled from a patient was mixed with inhibitor solution (0.05 mM, 0.5 mM or 5 mM in physiological NaCl solution; 1 part) and stored at room temperature (about 22±2° C.). The quantity of thrombin formed was determined immunologically during storage based on the formation of the prothrombin fragment F1+2 (Enzygnost F1+2 micro, Dade Behring GmbH, Marburg). It was shown that BAPA′ is capable of keeping anticoagulated blood uncoagulated at a concentration in the blood of 500 μM or 50 μM for more than 48 hours (Table 4). At a concentration of 5 μM BAPA′ prevents coagulation for more than 8 hours.

Factor XIa = molecular target: T2, Factor XIa (Homo sapiens, UniProt P03951); experiment: Determination of Ki values, chromogenic substrate, Dixon evaluation: Factor XIa; type: biochemical; conditions: 25° C., tris buffer pH 8.0, substrate H-D-Lys(Cbo)-Pro-Arg-pNA
T2 construct: purchased Haemochrom Diagnostica GmbH (Essen, D)
T2 sequence (P03951 388-625 limits assumed): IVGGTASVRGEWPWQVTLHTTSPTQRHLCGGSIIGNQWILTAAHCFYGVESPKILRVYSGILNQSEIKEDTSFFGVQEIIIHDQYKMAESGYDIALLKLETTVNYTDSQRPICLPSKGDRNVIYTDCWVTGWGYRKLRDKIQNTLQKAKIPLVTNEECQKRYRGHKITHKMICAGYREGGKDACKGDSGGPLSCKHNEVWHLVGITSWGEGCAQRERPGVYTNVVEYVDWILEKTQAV
T2 sequence (P03951 19-387 partner limits assumed): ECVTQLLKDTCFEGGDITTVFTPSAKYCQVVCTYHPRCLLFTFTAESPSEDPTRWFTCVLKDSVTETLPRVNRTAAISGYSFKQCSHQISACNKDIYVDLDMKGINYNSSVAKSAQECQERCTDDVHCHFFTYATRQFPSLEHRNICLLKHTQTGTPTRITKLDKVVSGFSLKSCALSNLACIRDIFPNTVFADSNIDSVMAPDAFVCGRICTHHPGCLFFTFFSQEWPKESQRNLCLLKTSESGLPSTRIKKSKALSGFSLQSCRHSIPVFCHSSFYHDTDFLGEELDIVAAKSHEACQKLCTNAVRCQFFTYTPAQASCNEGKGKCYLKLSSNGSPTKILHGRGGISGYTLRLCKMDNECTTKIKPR
Source text: as §1, §2, §3, §4
as §3, with “1401,” for “12401,”

Factor VIIa = molecular target: T3, Factor VIIa (Homo sapiens, UniProt P08709); experiment: Determination of Ki values, chromogenic substrate, Dixon evaluation: Factor VIIa; type: biochemical; conditions: 25° C., tris buffer pH 8.0, substrate CH3SO2-D-phe-Gly-Arg-pNA
T3 construct: purchased Haemochrom Diagnostica GmbH (Essen, D)
T3 sequence (P08709 213-466 limits assumed): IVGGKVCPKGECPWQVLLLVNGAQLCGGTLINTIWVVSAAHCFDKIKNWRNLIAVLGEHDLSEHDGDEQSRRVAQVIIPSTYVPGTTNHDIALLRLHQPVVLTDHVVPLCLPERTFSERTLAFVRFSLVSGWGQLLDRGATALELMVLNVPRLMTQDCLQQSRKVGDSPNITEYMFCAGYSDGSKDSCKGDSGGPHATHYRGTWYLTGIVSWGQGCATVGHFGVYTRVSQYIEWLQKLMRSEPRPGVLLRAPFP
T3 sequence (P08709 61-212 partner limits assumed): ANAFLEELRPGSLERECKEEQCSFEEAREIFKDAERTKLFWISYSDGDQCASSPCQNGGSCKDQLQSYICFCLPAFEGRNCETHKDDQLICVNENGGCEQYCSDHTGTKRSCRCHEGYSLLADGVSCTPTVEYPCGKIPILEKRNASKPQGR
Source text: as §1, §2, §3, §4
as §3, with “1401,” for “12401,”

| SMILES | Ki (Factor XIIa) [µM] | Anticoagulation time (human vein blood; concentration in the blood 5 μM) [h] | Ki (Factor XIa) [µM] | Ki (Factor VIIa) [µM] | Anticoagulation time (human vein blood; concentration in the blood 500 μM) [h] |
| --- | --- | --- | --- | --- | --- |
| COC(=O)[C@H](Cc1cccc(C(=N)N)c1)[C@@H](C)NC(=O)c1ccc(-c2cc[n+]([O-])cc2)cc1 (mixture of isomers) [Otamixaban, 2-(R)-(3-carbamimidoylbenyzyl)-3-(R)-[4-(1-oxypyridin-4-yl)benzoylamino]-butyric acid-methylester] | > 1000 | 12 to 24 | 23 | 19 |  |
| N=C(N)c1ccc(C=C2CCCCC(=Cc3ccc(C(=N)N)cc3)C2=O)cc1 [Pefabloc tPA/Xa, 2,7-bis(4-amidinobenzylidene)-cycloheptanone-(1)] | 0.36 |  | 42 | 140 | 7 to 10 |
